In US6603023B2 (priority 1996, dated 2003):
pIC50: −log10 of the molar value. Read-outs that look alike come from different tables or passages of the source.

What was measured:
CCRF-CEM/Taxol® = assay: cells; format: cell-based, human; conditions: Table 1A
Outline: (§1)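 Leukemia cells (CCRF-CEM, P388/0 and drug-resistant sublines kept under selecting agent) grew in RPMI-1640 with 10% FBS at 37 °C, 5% CO2, seeded at 5×10^4 cells/mL. After 72 h drug exposure, viability was read by XTT with 0.025 mM PMS-XTT, 4 h at 37 °C, absorbance 450/630 nm.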

CCRF-CEM/VBL100 = assay: cells; format: cell-based, human; conditions: for fold resistance (cross-resistance) vs parent CCRF-CEM: CCRF-CEM/VBL100 MDR cells; for pIC50: read-out: IC50
Outline: as §1

CCRF-CEM/VM1 = assay: cells; format: cell-based, human; conditions: for pIC50: XTT, read-out: IC50
Outline: as §1

[1] = system: DC-3F hamster lung fibroblast cell line; assay: SRB cytotoxicity, DC-3F; format: cell-based; conditions: Table 1C; SRB, 72 h; read-out: IC50
Outline: (§2)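 Monolayer cultures grown in RPMI 1640-10% FBS at 37 °C, 5% CO2, with resistant sublines kept under their selecting agent. Cytotoxicity determined by SRB protein staining (TCA fixation, absorbance 570 nm) in duplicate at six to seven drug concentrations. ED50 obtained by median-effect plot analysis.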

DC-3F/ADX = assay: cells; format: cell-based, hamster
Outline: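 Hamster lung fibroblast DC-3F sublines selected with actinomycin D (ADII moderate, ADX very strong MDR), maintained under selecting agent in RPMI 1640-10% FBS at 37° C. Monolayers exposed to six to seven drug concentrations in duplicate, TCA-fixed, stained with 0.4% SRB; absorbance 570 nm, analyzed by median-effect plot.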

SK-N-FI = assay: cells; format: cell-based, human
Outline: as §2

MCF-7 = assay: SRB cytotoxicity, MCF-7; format: cell-based, human; conditions: Table 1C; SRB, 72 h; read-out: IC50
Outline: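 Monolayer MCF-7 cultures exposed to six to seven drug concentrations in duplicate, then fixed with trichloroacetic acid and stained 30 min with 0.4% sulforhodamine B. Bound dye extracted with unbuffered Tris base, absorbance read at 570 nm; values derived by median-effect plot analysis.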

MCF-7/Adr = assay: cells; format: cell-based, human; conditions: Table 1C
Outline: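 Sulforhodamine B readout: TCA-fixed cultures stained 30 min with 0.4% SRB, bound dye extracted in unbuffered Tris and read at 570 nm. Duplicate experiments, six to seven drug concentrations per run.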

[2] = system: human ovarian adenocarcinoma SK-OV-3; conditions: 0.6 mg/kg i.p. Q2Dx5 from day 9
[3] = Table 1C, SRB, 72 h, read-out: IC50

What does the source list for `C/C(=C\c1csc(C)n1)[C@@H]1C[C@@H]2O[C@]2(C)CCC[C@H](C)[C@H](O)[C@@H](C)C(=O)C(C)(C)[C@@H](O)CC(=O)O1` [Epothilone B, epothilone B]?
(C)/(A) IC50 ratio (CCRF-CEM/Taxol®; CCRF-CEM/Taxol vs CCRF-CEM): 3.1; pIC50 (CCRF-CEM/Taxol®; XTT, 72 h, read-out: IC50): 8.96; fold resistance (cross-resistance) vs parent CCRF-CEM (CCRF-CEM/VBL100): 5 fold; fold resistance (cross-resistance) vs parent CCRF-CEM (CCRF-CEM/VBL100; listed as EpoB): 6.1 fold; Potency in parentheses relative to Epo B in CCRF-CEM cells (CCRF-CEM/VBL100; CCRF-CEM/VBL MDR cells): 1/6; Potency in square brackets relative to Epo B in CCRF-CEM/VBL MDR cells (CCRF-CEM/VBL100; CCRF-CEM/VBL MDR cells): 1; pIC50 (CCRF-CEM/VBL100; Table 1, XTT): 8.52; (B)/(A) IC50 ratio (CCRF-CEM/VBL100; Table 1A, CCRF-CEM/VBL100 vs CCRF-CEM): 6.1; pIC50 (CCRF-CEM/VBL100; listed as Epo B): 8.68; pIC50 (CCRF-CEM/VBL100): 8.70; pIC50 (CCRF-CEM/VM1; Table 1): 8.70; (D)/(A) IC50 ratio (CCRF-CEM/VM1; Table 1A, CCRF-CEM/VM1 vs CCRF-CEM): 3.6; pIC50 (CCRF-CEM/VM1; Table 1A, 72 h): 8.89; pIC50 [1]: 9.22; fold resistance vs parent DC-3F (DC-3F/ADX; DC-3F/ADX cells, listed as EpoB): 28 fold; folds of resistance (IC50 ratio vs parent cell line) (DC-3F/ADX; Table 1C, DC-3F/ADX vs DC-3F): (28x); pIC50 (DC-3F/ADX; [3]): 7.77; fold resistance vs parent SK-N-As (SK-N-FI; SK-N-F1 cells): 25 fold; folds of resistance (IC50 ratio vs parent cell line) (SK-N-FI; Table 1C, SK-N-FI vs SK-N-As): (25x); pIC50 (SK-N-FI; [3]): 8.00; pIC50 (MCF-7): 9.30; folds of resistance (IC50 ratio vs parent cell line) (MCF-7/Adr; MCF-7/Adr vs MCF-7): (5.4x); pIC50 (MCF-7/Adr; SRB, 72 h, read-out: IC50): 8.57; Toxicity Death [2]: 0/6; Tumor Disapp. [2]: 0/6; Average Body Weight Change ([2]; day 13): -0.9 g; Average Body Weight Change ([2]; day 15): -0.5 g; Average Tumor Size (T/C) ([2]; day 15): 0.75; Average Body Weight Change ([2]; day 17): -3.3 g; Average Tumor Size (T/C) ([2]; day 17): 0.69; Average Body Weight Change ([2]; day 19): -3.4 g; Average Tumor Size (T/C) ([2]; day 19): 0.88; Average Tumor Size (T/C) ([2]; day 21): 0.77
